Data: PubChem BioAssay AID1259407 (Chemical Carcinogenesis Research Information System (CCRIS), 2018)
The source made the active and inactive calls. The rule behind the calls is not given here.

Tested on: CCRIS mutagenicity, Ames/micronucleus/aberration tests
Experiment: CCRIS mutagenicity studies
[1] = Test System: AMES SALMONELLA TYPHIMURIUM, Strain/Indicator: TA100, Metabolic Activation: NONE, Method: STANDARD PLATE

Cc1cc(C)c(CN2C3c4ccccc4-c4ccccc4C32)c(C)c1 (stereo not drawn)
mutagenic call [1]: active; positive

Cl/C=C\Cl
mutagenic call (End Point: IN VITRO CHROMOSOMAL ABERRATIONS, Test System: CHINESE HAMSTER LUNG (CHL), Metabolic Activation: NONE): inactive; negative
mutagenic call (End Point: IN VITRO CHROMOSOMAL ABERRATIONS, Test System: CHINESE HAMSTER LUNG (CHL), Metabolic Activation: RAT. LIVER, S-9, KC-400): inactive; negative
mutagenic call (Test System: AMES SALMONELLA TYPHIMURIUM, Strain/Indicator: TA97, Metabolic Activation: HAMSTER LIVER S-9, AROCLOR 1254 (10%), Method: PREINCUBATION): inactive; negative
mutagenic call (Test System: AMES SALMONELLA TYPHIMURIUM, Strain/Indicator: TA97, Metabolic Activation: HAMSTER LIVER S-9, AROCLOR 1254 (30%), Method: PREINCUBATION): inactive; negative
mutagenic call (Test System: AMES SALMONELLA TYPHIMURIUM, Strain/Indicator: TA97, Metabolic Activation: HAMSTER, LIVER, S-9, AROCLOR 1254 (10%), Method: PREINCUBATION): inactive; negative
mutagenic call (Test System: AMES SALMONELLA TYPHIMURIUM, Strain/Indicator: TA97, Metabolic Activation: HAMSTER, LIVER, S-9, AROCLOR 1254 (30%), Method: PREINCUBATION): inactive; negative
mutagenic call (Test System: AMES SALMONELLA TYPHIMURIUM, Strain/Indicator: TA97, Metabolic Activation: NONE, Method: PREINCUBATION): inactive; negative
mutagenic call (Test System: AMES SALMONELLA TYPHIMURIUM, Strain/Indicator: TA97, Metabolic Activation: RAT LIVER S-9, AROCLOR 1254 (10% OR 30%), Method: PREINCUBATION): inactive; negative
mutagenic call (Test System: AMES SALMONELLA TYPHIMURIUM, Strain/Indicator: TA97, Metabolic Activation: RAT, LIVER, S-9, AROCLOR 1254 (10 OR 30%), Method: PREINCUBATION): inactive; negative
mutagenic call (Test System: AMES SALMONELLA TYPHIMURIUM, Strain/Indicator: TA98, Metabolic Activation: HAMSTER LIVER S-9, AROCLOR 1254 (10%), Method: PREINCUBATION): inactive; negative
mutagenic call (Test System: AMES SALMONELLA TYPHIMURIUM, Strain/Indicator: TA98, Metabolic Activation: HAMSTER LIVER S-9, AROCLOR 1254 (30%), Method: PREINCUBATION): inactive; negative
mutagenic call (Test System: AMES SALMONELLA TYPHIMURIUM, Strain/Indicator: TA98, Metabolic Activation: HAMSTER, LIVER, S-9, AROCLOR 1254 (10%), Method: PREINCUBATION): inactive; negative
mutagenic call (Test System: AMES SALMONELLA TYPHIMURIUM, Strain/Indicator: TA98, Metabolic Activation: HAMSTER, LIVER, S-9, AROCLOR 1254 (30%), Method: PREINCUBATION): inactive; negative
mutagenic call (Test System: AMES SALMONELLA TYPHIMURIUM, Strain/Indicator: TA98, Metabolic Activation: NONE, Method: PREINCUBATION): inactive; negative
mutagenic call (Test System: AMES SALMONELLA TYPHIMURIUM, Strain/Indicator: TA98, Metabolic Activation: RAT LIVER S-9, AROCLOR 1254 (10% OR 30%), Method: PREINCUBATION): inactive; negative
mutagenic call (Test System: AMES SALMONELLA TYPHIMURIUM, Strain/Indicator: TA98, Metabolic Activation: RAT, LIVER, S-9, AROCLOR 1254 (10 OR 30%), Method: PREINCUBATION): inactive; negative
mutagenic call (Test System: AMES SALMONELLA TYPHIMURIUM, Strain/Indicator: TA100, Metabolic Activation: HAMSTER LIVER S-9, AROCLOR 1254 (10%), Method: PREINCUBATION): inactive; negative
mutagenic call (Test System: AMES SALMONELLA TYPHIMURIUM, Strain/Indicator: TA100, Metabolic Activation: HAMSTER LIVER S-9, AROCLOR 1254 (30%), Method: PREINCUBATION): inactive; negative
mutagenic call (Test System: AMES SALMONELLA TYPHIMURIUM, Strain/Indicator: TA100, Metabolic Activation: HAMSTER, LIVER, S-9, AROCLOR 1254 (10%), Method: PREINCUBATION): inactive; negative
mutagenic call (Test System: AMES SALMONELLA TYPHIMURIUM, Strain/Indicator: TA100, Metabolic Activation: HAMSTER, LIVER, S-9, AROCLOR 1254 (30%), Method: PREINCUBATION): inactive; negative
mutagenic call (Test System: AMES SALMONELLA TYPHIMURIUM, Strain/Indicator: TA100, Metabolic Activation: NONE, Method: PREINCUBATION): inactive; negative
mutagenic call (Test System: AMES SALMONELLA TYPHIMURIUM, Strain/Indicator: TA100, Metabolic Activation: RAT LIVER S-9, AROCLOR 1254 (10% OR 30%), Method: PREINCUBATION): inactive; negative
mutagenic call (Test System: AMES SALMONELLA TYPHIMURIUM, Strain/Indicator: TA100, Metabolic Activation: RAT, LIVER, S-9, AROCLOR 1254 (10 OR 30%), Method: PREINCUBATION): inactive; negative
mutagenic call (Test System: AMES SALMONELLA TYPHIMURIUM, Strain/Indicator: TA1535, Metabolic Activation: HAMSTER LIVER S-9, AROCLOR 1254 (10%), Method: PREINCUBATION): inactive; negative
mutagenic call (Test System: AMES SALMONELLA TYPHIMURIUM, Strain/Indicator: TA1535, Metabolic Activation: HAMSTER, LIVER, S-9, AROCLOR 1254 (10%), Method: PREINCUBATION): inactive; negative
mutagenic call (Test System: AMES SALMONELLA TYPHIMURIUM, Strain/Indicator: TA1535, Metabolic Activation: HAMSTER, LIVER, S-9, AROCLOR 1254 (30%), Method: PREINCUBATION): inactive; negative
mutagenic call (Test System: AMES SALMONELLA TYPHIMURIUM, Strain/Indicator: TA1535, Metabolic Activation: NONE, Method: PREINCUBATION): inactive; negative
mutagenic call (Test System: AMES SALMONELLA TYPHIMURIUM, Strain/Indicator: TA1535, Metabolic Activation: RAT LIVER S-9, AROCLOR 1254 (10% OR 30%), Method: PREINCUBATION): inactive; negative
mutagenic call (Test System: AMES SALMONELLA TYPHIMURIUM, Strain/Indicator: TA1535, Metabolic Activation: RAT, LIVER, S-9, AROCLOR 1254 (10 OR 30%), Method: PREINCUBATION): inactive; negative
mutagenic call (Test System: AMES SALMONELLA TYPHIMURIUM, Strain/Indicator: TA1537, Metabolic Activation: HAMSTER LIVER S-9, AROCLOR 1254 (30%), Method: PREINCUBATION): inactive; negative
mutagenic call (Test System: AMES SALMONELLA TYPHIMURIUM, Strain/Indicator: TA1537, Metabolic Activation: HAMSTER, LIVER, S-9, AROCLOR 1254 (30%), Method: PREINCUBATION): inactive; negative
mutagenic call (Test System: AMES SALMONELLA TYPHIMURIUM, Strain/Indicator: TA1537, Metabolic Activation: NONE, Method: PREINCUBATION): inactive; negative
mutagenic call (Test System: AMES SALMONELLA TYPHIMURIUM, Strain/Indicator: TA1537, Metabolic Activation: RAT LIVER S-9, AROCLOR 1254 (30%), Method: PREINCUBATION): inactive; negative
mutagenic call (Test System: AMES SALMONELLA TYPHIMURIUM, Strain/Indicator: TA1537, Metabolic Activation: RAT, LIVER, S-9, AROCLOR 1254 (30%), Method: PREINCUBATION): inactive; negative

COc1nsc2c(OCC3CO3)cccc12 (stereo not drawn)
mutagenic call [1]: active; positive

O=[N+]([O-])c1ccc2cc3c(cc2c1)C=C[C@@H](O)[C@@H]3O
mutagenic call (Test System: AMES SALMONELLA TYPHIMURIUM, Strain/Indicator: TA98, Metabolic Activation: NONE, Method: STANDARD PLATE): active; positive
mutagenic call (Test System: AMES SALMONELLA TYPHIMURIUM, Strain/Indicator: TA98, Metabolic Activation: RAT, LIVER, S-9, AROCLOR 1254, Method: STANDARD PLATE): active; positive
